Laboratory results reported in patent US5932580A, “PDGF receptor kinase inhibitory compounds their preparation and compositions” (priority 1997, dated 1999).
pIC50: −log10 of the molar value. “Also recorded” adds a separate entry of the source. Read-outs that look alike come from different tables or passages of the source.

Legend:
[1] = system: porcine aortic smooth muscle cells (SMC); experiment: Inhibition of cell proliferation and recovery, porcine SMC; format: cell-based; details: for inhibitory effect on porcine SMC growth (in words) / toxicity on SMC / inhibition at 10 µM: 10 μM; for inhibitory effect on porcine SMC growth (in words): FIGS. 3-7; for toxicity on SMC / reversibility of the inhibitory effect / recovery of SMC growth after washout: porcine SMC; for inhibition at 10 µM: Sus scrofa; for reversibility of the inhibitory effect / recovery of SMC growth after washout: cultures washed, cells allowed to recover
Method: Smooth muscle cells (SMC) were obtained under aseptic conditions from porcine abdominal aortas, and human internal mammary arteries (IMA). Specimens from the operating room were transferred on ice to the tissue culture room. Each artery was cut open and the endothelial surface mechanically scraped. […] The tissue fragments were then placed in an incubator at 37° C. under 9% CO2 atmosphere until SMC outgrowth was detected (typically within 3-7 days). […] For experiments testing the effect of tyrphostins on growth inhibition and recovery (see below), SMC from passages 1-3 were replated in 15 mm wells pretreated with 3 μg/cm^2 fibronectin (Biological Industries, Kibbutz Beit Haemek, Israel) at 15,000 cells/well.
Inhibition of cell proliferation and recovery: Monolayer cell growth inhibition and recovery experiments were repeated 3 or 4 times. Each experiment was performed in triplicate. […] Cultures were treated with a tyrphostin (10 μM) dissolved in 0.1% DMSO on days 1 and 3. On day 6, cultures were washed and the cells allowed to recover. Typically cells were counted on days 3 and 5 for inhibition, and on days 7, 10 and 15 for recovery, other schedules were also employed as reported below.

PDGFR = PDGFR autophosphorylation, isolated membranes or intact Swiss 3T3 cells; format: biochemical; details: read-out: IC50 (50% inhibition of phosphorylation) PDGFR
Method: Assay of receptor autophosphorylation in intact 3T3 cells: Confluent Swiss 3T3 cells in 24-well plates (Nunc) were incubated for 20-24 hours in serum-free DMEM. Subsequently, tyrphostins were added at concentrations ranging from 0 to 100 μM (final DMSO concentration, 0.5%) and the incubation was continued for 6-8 hours. The cells were then stimulated with 100 ng/ml PDGF-BB for 5 min at room temperature or 600 ng/ml EGF for 2.5 min on ice. The growth factor treatment was terminated by washing twice with ice-cold PBS and the cells were scraped off the wells in 60 μl lysis buffer containing 20 mM Hepes (pH 7.4), 150 mM NaCl, 1% Triton X-100, 10 mM sodium pyrophosphate, 50 mM NaF, 2 mM sodium-o-vanadate, 20 μm zinc acetate, 10 nM EDTA, 2 mM [ethylenebis(oxyethilenenitrilo)] tetraacetic acid, 1 mM phenylmethylsulfonyl fluoride, and 5 μg/ml leupeptin.
The cell lysates were clarified by centrifugation (cooled microfuge, 17,000 rpm, 15 min) and analyzed by SDS-PAGE (6.5% gels) and immunoblotting with anti-phosphotyrosine antibodies (either PY 20, ICN, and subsequently a peroxidase-coupled secondary antibody, or RC20-peroxidase conjugate, Affinity, Nottingham, United Kingdom). The blots were developed with a chemiluminescence detection system (Western Light, Tropix, or ECL, Amersham). In some experiments PDGF receptors were immunoprecipitated with PDGF-R3 or DIG-1 antibodies as described prior to the analysis by immunoblotting with anti-phosphotyrosine antibodies.
Membrane autophosphorylation assays: Membranes were prepared from confluent cultures of Swiss 3T3 cells as described. For measuring receptor autophosphorylation, 10 μg membrane protein per assay were incubated for 20 min on ice in the presence of 1.2 μg/ml EGF or 2 μg/ml PDGF, or both; 50 mM Hepes (pH 7.5); and 3 mm MnCl2 (final concentrations) in a volume of 45 μl. […] For quantification of radioactivity in electrophoresis gels, a Phospho-Imager (Molecular Dynamics, Fuji, or Bio-Rad) was used according to the instructions of the manufacturers. […]

SRC kinase = biological target: T1, SRC kinase (Gallus gallus, UniProt P00523, Y527F); experiment: Src kinase activity assay (immunoprecipitate from src-transformed NIH 3T3 cells); format: biochemical, chicken; details: read-out: IC50 (50% inhibition of phosphorylation) SRC kinase
T1 construct: expressed in transfected cells; host or cells: NIH 3T3, stably transfected (gift of S. Courtneidge, Heidelberg)
Method: Src kinase activity assay: src-transformed NIH 3T3 cells were grown in 24-well plates to confluency; rinsed twice with a solution containing 20 mM Tris, 0.1 mM sodium-o-vanadate, and 150 mM NaCl (pH 7.5); and lysed in 100 μl/well of lysis buffer containing 20 mM Tris (pH 8.0), 150 mM NaCl, 1% Nonidet P-40, 2.5 mM EDTA, 10 mM NaF, 1% trasylol, and 20 μm leupeptin. The lysate was clarified by centrifugation and subjected to immunoprecipitation with the anti-Src monoclonal antibody MAb 327 (Oncogene Science; 0.5 μg antibody/80 μg protein) for 1 hour at 4° C. Then, goat anti-mouse IgG (Sigma; 0.2 μg per 0.5 μg monoclonal antibody 327) was added and incubation was continued for 30 mi followed by another 40 min of incubation with 10 μl of protein A-Sepharose Cl-4B (Pharmacia). The immunoprecipitates were washed five times with the lysis buffer and twice with kinase buffer containing 40 mM Hepes (pH 7.4), 0.5 mM dithiothreitol, 5 mM MnCl2, and 0.1 mM sodium-o-vanadate. The immunoprecipitates were suspended in kinase buffer and aliquots corresponding to 40 μg of cell lysate protein were preincubated with or without tyrphostin for 15 min at 30° C. Then, the kinase reaction was performed in the presence of 2 μg of acid-treated enolase and 10 μCi of [γ-^32 P]ATP (2 μM) in a final volume of 30 μl. The reaction was terminated by addition of SDS-PAGE sample buffer (6% SDS, 30% β-mercaptoetlhanol, 40% glycerol, and 0.5 mg/ml bromophenol blue) and the incorporation of radioactivity in the enolase was analyzed by SDS-PAGE and autoradiography as well as Phosphor-Imager quantification.

[2] = 120 h, by day 5 (day given for AG1295 and AG1992), read-out: reduction in SMC count / inhibition of SMC growth over control
[3] = Table 2, read-out: mean reduction in SMC count compared to control cells (maximal inhibition in SMC growth)

Compound | inhibitory effect on porcine SMC growth (in words) [1] | toxicity on SMC [1] | inhibition at 10 µM [1, 2] | inhibition at 10 µM ([1]; FIG. 6 experiment, read-out: maximal inhibitory effect on porcine SMC proliferation) | inhibition at 10 µM [1, 3] | reversibility of the inhibitory effect / recovery of SMC growth after washout [1] | pIC50 (PDGFR) | pIC50 (SRC kinase) | inhibition at 10 µM ([1]; FIG. 7 experiment, read-out: maximal inhibitory effect on porcine SMC proliferation)
Cc1nc2cc3nc(-c4ccccc4)cnc3cc2n1C [AG1851] | very potent growth inhibition effect; also recorded: most effective inhibitory response; also recorded: highly effective in blocking proliferation | without having a substantial toxic effect; also recorded: low lasting toxicity | 79% | 78% | 79% | completely reversible; also recorded: normal cell growth appeared immediately after treatment with AG1851 was discontinued | 5.30 | < 4.52 | 
Cc1nc2cc3nc(-c4cccs4)cnc3cc2n1C [AG1992] | very potent growth inhibition effect; also recorded: very effective proliferation inhibitors | low lasting toxicity | 87% |  | 87% | completely reversible | 6.00 | < 4.52 | 89%
